Test [1] deals with IL-2 production in Jurkat T-cells. The test is described as follows: Inhibition of IL-2 production, Jurkat/PHA/1% FBS, ELISA. The test is classed as cell-based. Particulars: Homo sapiens, read-out: IL-2 inhibition Jurkat/PHA/1% FBS IC50 (nM), PHA 2.5 μg/mL, 20 hours. As for the experimental part:
JurkaT-cells were placed in a 96 well plate (0.5 million cells per well in 1% FBS medium), and then a test compound of this invention was added at different concentrations. After 10 minutes, the cells were activated with PHA (final concentration 2.5 μg/mL) and incubated for 20 hours at 37° C. under 5% CO2. The final volume was 200 μL. Following incubation, the cells were centrifuged, and the supernatants collected and stored at −70° C. prior to assaying for IL-2 production. A commercial ELISA kit (IL-2 Eli-pair, Diaclone Research, Besancon, France) was used to detect production of IL-2, from which dose response curves were obtained. The IC50 value was calculated as the concentration at which 50% of maximum IL-2 production after stimulation was inhibited versus a non-stimulation control.
For orientation: An ELISA detects its analyte on a solid surface through an enzyme-linked reagent.

Test [2] addresses T1, ICRAC current (CRAC ion channels), RBL-2H3 cells (Rattus norvegicus, UniProt Q5M848).
T1 construct: endogenous in cells; host or cells: RBL-2H3 (rat basophilic leukemia cells)
The test is described as follows: Automated patch clamp (Qpatch) inhibition of ICRAC current in RBL-2H3 cells. The settings on record: compound at 100 nM, method calculates % ICRAC inhibition. The test is classed as cell-based. As for the experimental part: Automated patch clamp experiments are conducted with the QPatch 16 (Sophion Bioscience, Ballerup, Denmark) at room temperature (21-25° C.). Immediately following the establishment of giga-seal whole-cell configuration, the cells membrane potential is clamped at 0 mV. Voltage ramps of 50 ms duration spanning the voltage range of −100 to +100 mV are then stimulated at a rate of 0.33 Hz. Currents are filtered at 2.9 kHz and digitized at 200 μs intervals. Capacitive currents and series resistance are determined and corrected before each voltage ramp using the automatic capacitance compensation.
RBL-2H3 are grown in DMEM media supplemented with 10% fetal bovine serum, penicillin 100 U/ml and streptomycin […] in an atmosphere of 95% air/5% CO2. Cells are grown to confluence in 175 cm^2 tissue culture flask. On the experimental day, cells harvested with 0.25% trypsin/0.02% EDTA and resuspended in extracellular solution at density of 5×10^6 cells/ml.
The intracellular solution contains Cs-Glutamate 90 mM; NaCl 8 mM; MgCl2 3 mM; CsCl 20 mM; CsBAPTA 20 mM; HEPES 10 mM; InsP3 0.02 mM; pH=7.2 adjusted with CsOH.
The extracellular solution contains NMDGCl 120 mM; KCl 5.4 mM; CsCl 10 mM; CaCl2 10 mM; MgCl2 1 mM; HEPES 10 mM; Glucose 5.5 mM; at pH=7.4 adjusted with HCl.
ICRAC currents are measured using 50 msec voltage ramps between −100 mV to +100 mV. The voltage ramps are stimulated every 3 seconds for at least 570 seconds. The maximum ICRAC current is allowed to develop for at least 135 seconds. Compounds diluted in extracellular solutions are then applied twice, 30 seconds apart. After incubating the cells with compound for 435 seconds, a reference solution is applied at the end of the experiment. The reference solution is a Ca^2+ free extracellular solution.
Off-line analysis with the Qpatch software is used to plot the current value at −80 mV for each ramp trace against time. The resulting current versus time data is then exported into a Microsoft Excel spreadsheet. The ICRAC membrane currents are separated from the cells basal background currents by either subtracting out the average membrane current values during the first 1-3 traces, or the average membrane current values obtained with the reference solution at the end of the experiment. The % ICRAC inhibition in each cell is calculated by comparing the amount of current just prior to the first compound addition to the amount of current after the cells has been perfused with the compound for at least 400 seconds.

T1 sequence (Q5M848 whole entry): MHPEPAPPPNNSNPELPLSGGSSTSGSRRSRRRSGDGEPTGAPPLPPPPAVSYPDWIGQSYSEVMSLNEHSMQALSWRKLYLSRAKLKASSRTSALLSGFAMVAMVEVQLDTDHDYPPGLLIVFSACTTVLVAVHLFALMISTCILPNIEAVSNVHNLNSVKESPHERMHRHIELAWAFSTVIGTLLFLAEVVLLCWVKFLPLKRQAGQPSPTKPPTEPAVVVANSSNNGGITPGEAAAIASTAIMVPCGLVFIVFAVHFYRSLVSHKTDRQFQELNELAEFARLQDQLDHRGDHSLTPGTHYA

Usually inhibition stands for the relative decrease from the control value, in per cent. As to `Cn1cc(-c2ccc(Cl)c(-c3cnc(NC(=O)c4ccc(F)cc4F)cn3)c2)cn1` [Compound 8, N-(5-(2-chloro-5-(1-methyl-1H-pyrazol-4-yl)phenyl)pyrazin-2-yl)-2,4-difluorobenzamide], the IC50 in test [1] was determined as 14 nM. The inhibition at 0.1 µM in test [2] is 82%.

Regarding `CCc1sc(-c2cc(C)on2)nc1-c1ccc(NC(=O)c2cncc(Cl)c2C)nc1` [Compound 9], in test [1], the IC50 is 10 nM. Further, the inhibition at 0.1 µM in test [2] was 73%.

As to `Cc1ccc(-c2nc(-c3ccc(C(=O)Nc4c(F)cccc4F)cc3)c(C)s2)cn1` [Compound 1], the IC50 in test [1] turned out to be 27 nM. Further, in test [2], the inhibition at 0.1 µM was 80%.

For the compound `CCc1sc(-c2cc(C)on2)nc1-c1ccc(C(=O)Nc2cncnc2C)cc1` [Compound 6], the IC50 in test [1] was 38 nM. In addition, the inhibition at 0.1 µM in test [2] is 93%.

On to `CCc1sc(-c2cnc(C)cn2)nc1-c1ccc(C(=O)Nc2cnc(C)cc2C)cc1` [Compound 5], for which the IC50 in test [1] came to 32 nM. Also, in test [2], the inhibition at 0.1 µM was 40%.

Regarding `Cn1cc(-c2ccc(Cl)c(-c3cnc(NC(=O)c4cccc(F)c4F)cn3)c2)cn1` [Compound 7, N-(5-(2-chloro-5-(1-methyl-1H-pyrazol-4-yl)phenyl)pyrazin-2-yl)-2,3-difluorobenzamide], in test [1], the IC50 was found to be 10 nM. Further, in test [2], the inhibition at 0.1 µM was 98%.

For the compound `Cc1cc(C)c(NC(=O)c2ccc(-c3cc(-c4nnn(C)n4)ccc3Cl)cc2)cn1` [Compound 2, 2′-chloro-N-(4,6-dimethylpyridin-3-yl)-5′-(2-methyl-2H-tetrazol-5-yl)-[1,1′-biphenyl]-4-carboxamide], in test [1], the IC50 is 33 nM. In addition, the inhibition at 0.1 µM in test [2] was 61%.

Take `Cc1cc(C)c(NC(=O)c2ccc(-c3cc(-c4nnn(C)n4)ccc3C)cc2)cn1` [Compound 3, N-(4,6-dimethylpyridin-3-yl)-2′-methyl-5′-(2-methyl-2H-tetrazol-5-yl)-[1,1′-biphenyl]-4-carboxamide]: in test [1], the IC50 is 46 nM. For the same compound, the inhibition at 0.1 µM in test [2] was 36%.

Take `Cc1ccncc1C(=O)Nc1ccc(-c2cc(-c3nnn(C)n3)ccc2Cl)cn1` [Compound 4, N-(5-(2-chloro-5-(2-methyl-2H-tetrazol-5-yl)phenyl)pyridin-2-yl)-4-methylnicotinamide]: the inhibition at 0.1 µM in test [2] is 36%.

Values taken from patent publication US20140242099A1 (Synta Pharmaceuticals Corp., priority 2011, published 2014).
